These results are taken from US20170304388A1, “NEW INDICATION OF CARDIOVASCULAR DRUGS FOR PREPARATION OF CANCER INHIBITION PHARMACEUTICAL COMPOSITION” (LAUNX BIOMEDICAL CO., LTD., priority 2014, published 2017).

For orientation: viability means a read-out of living cells in per cent, often relative to untreated cells.

Common to all, as to assay type: cell-based
In one series the test system is Hep3B. Kind of series: Cell viability analysis (WST-1), Hep3B. Conditions: Table 4, repeated experiments, drug 10 μM; for viability at 10 µM: Homo sapiens, Hep3B, 72 h, read-out: survival rate (viability) of cancer cells, Hep3B. On the procedure: (§1) Subculture the different types of cancer cells. The cancer cells includes lung cancer, gastric cancer, hepatic cancer, colon cancer, skin cancer, cervical cancer, prostate cancer, bladder cancer, breast cancer, leukemia, pancreatic cancer, ovarian cancer, tongue cancer, osteosarcoma, and renal cancer. The cell numbers were counted and reseed as 2×10^6 in cell culture plate/flask. Then, the culture medium for culturing the cell lines was added to a volume of 10 ml, and the cells were cultured for 2-3 days. Then, the cells were suspended for loading into 96-well plates. The cell number was 3000 cells and the volume of the culture medium was 100 ul each well.
(§2) Removing the original culture medium from 96-well plate. Then add 100 μl of commercially drug at a concentration of 10 μM per well. After 72 hours, add the diluted WST-1 reagent to the well with 100 μl/well, and the diluted WST-1 reagent was acquired from the dilution of 9:1 medium and WST-1 stock reagent. Finally, the total volume of each well are 200 μl/well. Culture the 96-well plate at 37° C. for 30 to 90 minutes. Detecting and calculating the survival rate of each cancer cells with an ELISA reader at OD450 nm. The lower viability of cancer cells represents better inhibition effect via the drugs. Otherwise, the higher viability of cancer cells represents worse inhibition effect via the drugs.
(§3) According to the above mentioned cardiovascular drugs for cancer growth inhibition in Table 3, the inventors took the repeat experiments for the cardiovascular drugs to check the growth inhibitory effects of cancer cells by the cardiovascular drugs. […] 4.
A general note: Formazan colour is commonly taken as a measure of viable cells.

For series [1], the system named is MKN-45 (Gastric Adenocarcinoma). Kind of series: Cell viability analysis (WST-1), MKN-45. The conditions noted are these: Table 4, repeated experiments, drug 10 μM; for viability at 10 µM: Homo sapiens, MKN-45, 72 h, WST-1, read-out: survival rate (viability) of cancer cells, MKN-45.
The test system of series [2] is PC3 (Prostate Adenocarcinoma). Kind of series: Cell viability analysis (WST-1), PC3. The conditions noted are these: 72 h, Table 4, repeated experiments, drug 10 μM, WST-1, read-out: survival rate (viability) of cancer cells, PC-3.
Another series deals with 786-O. The series is described as follows: Cell viability analysis (WST-1), 786-O. The conditions noted are these: Table 4, repeated experiments, drug 10 μM; for viability at 10 µM: Homo sapiens, 786-0, 72 h, read-out: survival rate (viability) of cancer cells, 786-O. On the procedure:
as §1, §2, §3

The next series concerns AsPC-1. The series is described as follows: Cell viability analysis (WST-1), AsPC-1. Conditions: Homo sapiens, ASPC1, 72 h, Table 4, repeated experiments, drug 10 μM, read-out: survival rate (viability) of cancer cells, AsPC-1. On the procedure: as §1, §2, §3
In another series the test system is SAS. Kind of series: Cell viability analysis (WST-1), SAS. Conditions: Table 4, repeated experiments, drug 10 μM; for viability at 10 µM: 72 h, read-out: survival rate (viability) of cancer cells, SAS. On the procedure: as §1, §2, §3
Series [3] relates to MCF7 (Mammary Gland, Adenocarcinoma). Kind of series: Cell viability analysis (WST-1), MCF7. Conditions: Homo sapiens, MCF7, 72 h, Table 4, repeated experiments, drug 10 μM, WST-1, read-out: survival rate (viability) of cancer cells, MCF-7.
In another series the test system is BCC. Kind of series: Cell viability analysis (WST-1), BCC. The conditions noted are these: Table 4, repeated experiments, drug 10 μM; for viability at 10 µM: BCC, 72 h, read-out: survival rate (viability) of cancer cells, BCC.
Another series relates to TOV-21G. Kind of series: Cell viability analysis (WST-1), TOV-21G. Conditions: Table 4, repeated experiments, drug 10 μM; for viability at 10 µM: Homo sapiens, TOV21G, 72 h, read-out: survival rate (viability) of cancer cells, TOV-21G. On the procedure:
as §1, §2, §3

For another series, the system named is MDA-MB231. The series is described as follows: Cell viability analysis (WST-1), MDA-MB231. Conditions: Homo sapiens, MDA-MB-231, 72 h, Table 4, repeated experiments, drug 10 μM, read-out: survival rate (viability) of cancer cells, MDA-MB231.
A further series has as its system C-33A. The series is described as follows: Cell viability analysis (WST-1), C-33A. The conditions noted are these: Homo sapiens, C-33-A, 72 h, Table 4, repeated experiments, drug 10 μM, read-out: survival rate (viability) of cancer cells, C-33A. On the procedure:
as §1, §2, §3

Series [4] deals with AGS (Gastric Adenocarcinoma). The series is described as follows: Cell viability analysis (WST-1), AGS. The conditions noted are these: Table 4, repeated experiments, drug 10 μM; for viability at 10 µM: 72 h, WST-1, read-out: survival rate (viability) of cancer cells, AGS.
Another series concerns BxPC-3. Kind of series: Cell viability analysis (WST-1), BxPC-3. Conditions: Table 4, repeated experiments, drug 10 μM; for viability at 10 µM: Homo sapiens, BXPC-3, 72 h, read-out: survival rate (viability) of cancer cells, BxPC-3. On the procedure: as §1, §2, §3
For series [5], the system named is A549 (Lung Adenocarcinoma). Kind of series: Cell viability analysis (WST-1), A549. The conditions noted are these: Table 4, repeated experiments, drug 10 μM; for viability at 10 µM: Homo sapiens, A549, 72 h, WST-1, read-out: survival rate (viability) of cancer cells, A549.
Series [6] concerns H1650 (Lung Adenocarcinoma). The series is described as follows: Cell viability analysis (WST-1), H1650. Conditions: Table 4, repeated experiments, drug 10 μM; for viability at 10 µM: Homo sapiens, NCI-H1650, 72 h, WST-1, read-out: survival rate (viability) of cancer cells, H1650.
The subject of a further series is U2OS. The series is described as follows: Cell viability analysis (WST-1), U2OS. The conditions noted are these: Table 4, repeated experiments, drug 10 μM; for viability at 10 µM: Homo sapiens, U2OS, 72 h, read-out: survival rate (viability) of cancer cells, U2OS. On the procedure:
as §1, §2, §3

Another series concerns T24. The series is described as follows: Cell viability analysis (WST-1), T24. Conditions: Table 4, repeated experiments, drug 10 μM; for viability at 10 µM: Homo sapiens, T-24, 72 h, read-out: survival rate (viability) of cancer cells, T24. On the procedure: as §1, §2, §3
The test system of the next series is cancer cell lines. Kind of series: Growth inhibitory effects on the panel of cancer cell lines. Conditions: drug 10 μM, 72 hours, WST-1.
The test system of series [7] is HepG2 (Hepatocellular Carcinoma). Kind of series: Cell viability analysis (WST-1), HepG2. The conditions noted are these: Table 4, repeated experiments, drug 10 μM; for viability at 10 µM: Homo sapiens, HepG2, 72 h, WST-1, read-out: survival rate (viability) of cancer cells, HepG2.
Series [8] relates to LoVo (Colorectal Adenocarcinoma). The series is described as follows: Cell viability analysis (WST-1), LoVo. Conditions: Homo sapiens, LoVo, 72 h, Table 4, repeated experiments, drug 10 μM, WST-1, read-out: survival rate (viability) of cancer cells, LoVo.
Series [9] concerns TSGH-8301 (Urinary Bladder Carcinoma). The series is described as follows: Cell viability analysis (WST-1), TSGH-8301. Conditions: Table 4, repeated experiments, drug 10 μM; for viability at 10 µM: 72 h, WST-1, read-out: survival rate (viability) of cancer cells, TSGH-8301.
The subject of series [10] is A375 (Amelanotic Melanoma). Kind of series: Cell viability analysis (WST-1), A375. The conditions noted are these: Table 4, repeated experiments, drug 10 μM; for viability at 10 µM: Homo sapiens, A-375, 72 h, WST-1, read-out: survival rate (viability) of cancer cells, A375.
A further series has as its system NIH-OVCAR-3. The series is described as follows: Cell viability analysis (WST-1), NIH-OVCAR-3. Conditions: Homo sapiens, OVCAR-3, 72 h, Table 4, repeated experiments, drug 10 μM, read-out: survival rate (viability) of cancer cells, NIH-OVCAR-3. On the procedure: as §1, §2, §3
In series [11] the test system is HCT116 (Colorectal Carcinoma). The series is described as follows: Cell viability analysis (WST-1), HCT116. Conditions: Homo sapiens, HCT-116, 72 h, Table 4, repeated experiments, drug 10 μM, WST-1, read-out: survival rate (viability) of cancer cells, HCT116.
Series [12] has as its system HeLa (Cervix Adenocarcinoma). Kind of series: Cell viability analysis (WST-1), HeLa. Conditions: Homo sapiens, HeLa, 72 h, Table 4, repeated experiments, drug 10 μM, WST-1, read-out: survival rate (viability) of cancer cells, HeLa.

Description for cancer cell lines: For cell viability analysis, the cardiovascular drugs include peripheral vasodilator reaming enhancer, angiotensin converting agent inhibitor, hypotension and shock therapeutic agent, diuretic, antiarrhythmic agent, antiarralciton drug, antihypertensive agent, anticoagulant thrombolytic agent, cardiac tonic, intravenous (hemorrhoids) therapeutic agent, are used to test the inhibition effect of cancer cell.

Consider `CCOC(=O)C1=C(COCCN)NC(C)=C(C(=O)OC)C1c1ccccc1Cl` (stereo not drawn) [Amlodipine besylate (Norvase), Amlodipine besylate], for which the “survival rate (viability) of cancer cells, Hep3B” value with Hep3B (72 hours) was 123.4192. Moreover, in series [1] (72 hours, WST-1), the “survival rate (viability) of cancer cells, MKN-45” value worked out at 86.43. Also, the viability at 10 µM came out at 73.6% in series [2]; 87.8% in the series on AsPC-1; 80.5% in series [3]; 82.7% in the series on MDA-MB231; 33.7% in the series with C-33A; 85.6% in series [8]. The viability at 10 µM in the series with NIH-OVCAR-3 was found to be 91.6%; in series [11], 78.3%. In addition, the “survival rate (viability) of cancer cells, 786-O” value with 786-O (72 hours) was 73.16. Further, the “survival rate (viability) of cancer cells, SAS” value with SAS (72 hours) was found to be 94.7983. Moreover, in the series with BCC (72 hours), the “survival rate (viability) of cancer cells, BCC” value is given as 102.9778. Moreover, the “survival rate (viability) of cancer cells, TOV-21G” value in the series with TOV-21G (72 hours) is listed as 93.55. The “survival rate (viability) of cancer cells, AGS” value in series [4] (72 hours, WST-1) is 12.18. The “survival rate (viability) of cancer cells, BxPC-3” value with BxPC-3 (72 hours) was determined as 99.11. Also, the “survival rate (viability) of cancer cells, A549” value in series [5] (72 hours, WST-1) is given as 110.3104. Also, in [6] (72 hours, WST-1), the “survival rate (viability) of cancer cells, H1650” value is on record as 110.2477. Moreover, in the series on U2OS (72 hours), the “survival rate (viability) of cancer cells, U2OS” value stood at 71.06. The “survival rate (viability) of cancer cells, T24” value in the series on T24 (72 hours) came to 93.08. Besides, in the series with cancer cell lines, the “inhibition effect on different cancer cell lines (in words)” value is given as “significant inhibition effect”. For the same compound, in [7] (72 hours, WST-1), the “survival rate (viability) of cancer cells, HepG2” value was determined as 95.01. Besides, in [9] (72 hours, WST-1), the “survival rate (viability) of cancer cells, TSGH-8301” value is given as 36.2492. The “survival rate (viability) of cancer cells, A375” value in series [10] (72 hours, WST-1) came out at 136.6675.

Consider `CC(C)n1c(/C=C/C(O)CC(O)CC(=O)O)c(-c2ccc(F)cc2)c2ccccc21` (stereo not drawn) [Fluvastatin sodium (Lescol), Fluvastatin sodium], for which the viability at 10 µM with Hep3B is 109%; in series [1], 65.3%; in [2] it was 32.1%; in the series on 786-O, 23.6%; in the series with AsPC-1 it was 83.6%; in the series on SAS it was 81.5%. Besides, the viability at 10 µM in [3] is 82.5%; in the series on BCC it was 27%; in the series with TOV-21G it was 50.5%; in the series with MDA-MB231, 43%; in the series on C-33A, 89.5%; in series [12], 54.3%. Further, the viability at 10 µM in series [4] stood at 52%; with BxPC-3, 79.1%; in series [5], 98.8%; in series [6], 73.1%; in the series with U2OS, 91.2%; in the series with T24 it was 71.8%. Moreover, the viability at 10 µM in [7] was determined as 104%; in series [8] it was 100%; in [9], 78.2%; in series [10] it was 21.8%; in the series with NIH-OVCAR-3 it was 84.7%; in series [11], 55%.

Consider `COC(=O)C1=C(C)NC(C)=C(C(=O)OCC(C)C)C1c1ccccc1[N+](=O)[O-]` (stereo not drawn) [Nisoldipine (Sular), Nisoldipine], for which the viability at 10 µM amounted to 130% in the series on Hep3B; 98% in series [1]; 98.9% in series [2]; 49.5% with 786-O; 78.8% with AsPC-1; 48.8% in the series on SAS. The viability at 10 µM in series [3] turned out to be 86.6%; in the series on BCC, 58.8%; in the series with TOV-21G it was 44.4%; in the series with MDA-MB231, 74.1%; with C-33A, 66%; in series [12], 76.9%. The viability at 10 µM in [4] turned out to be 64.7%; in the series on BxPC-3, 75.6%; in [5], 48.9%; in series [6], 70%; in the series on U2OS, 69.1%; in the series on T24, 67.8%. For the same compound, the viability at 10 µM in series [7] came out at 95.5%; in series [8], 76.9%; in series [9], 77.9%; in series [10] it was 51.5%; in the series on NIH-OVCAR-3 it was 68.1%; in series [11], 77.4%.
